Results on 3 compounds are retold here after paper PMC8667885, “2-Aminobenzoxazole-appended coumarins as potent and selective inhibitors of tumour-associated carbonic anhydrases” (Journal of Enzyme Inhibition and Medicinal Chemistry, 2021).

In experiment [1] the target is T1, human CA I (Homo sapiens, UniProt P00915). More on the design: made in house; method as in PMID 22077347. The note with it: read-out: inhibition of hCAI; cited from earlier work.
Experiment [2] deals with T2, human CA II (Homo sapiens, UniProt P00918). More on the design: made in house; method as in PMID 22077347. The note with it: read-out: inhibition of hCAII; cited from earlier work.
Experiment [3] addresses human CA IV (Homo sapiens, UniProt P22748). The experiment is described as follows: stopped-flow CO2 hydrase assay, CA IV.
Source text: (§3) A stopped-flow CO2 hydrase assay has been employed as reported earlier[10–12].
In experiment [4] the test system is HeLa (cervix). The experiment can be described thus: antiproliferative assay (NCI protocol), HeLa. In kind it is cell-based, human. Particulars: Homo sapiens, HeLa; antiproliferative activity. The procedure:
(§1) The antiproliferative assays were conducted following the protocol of the US National Cancer Institute (NCI), with minor modifications.
(§2) The coumarin-benzoxazole hybrids were also tested as antiproliferative agents against a panel of six human solid tumour cell lines (Table 2): A549 (non-small cell lung), HBL-100 (breast), HeLa (cervix), SW1573 (non-small cell lung) as examples of drug-sensitive lines, and T-47D (breast) and WiDr (colon) as multidrug-resistant lines. A non-tumour cell line (BJ-hTert, human fibroblasts) was also used for analysing the selectivity. Chemotherapeutic agents 5-fluorouracyl (5-FU) and cisplatin (CDDP) were included in the study as drug references.

In experiment [5] the target is human CA VII (Homo sapiens, UniProt P43166). The experiment is described as follows: stopped-flow CO2 hydrase assay, CA VII.
Source text: as §3
Experiment [6] has as its system SW1573 (non-small cell lung). The experiment can be described thus: antiproliferative assay (NCI protocol), SW1573. The experiment is classed as cell-based, human. The note with it: Homo sapiens, SW1573; antiproliferative activity. On the procedure:
as §1, §2

Experiment [7] has as its target human CA IX (Homo sapiens, UniProt Q16790). The experiment is described as follows: stopped-flow CO2 hydrase assay, CA IX. Particulars: for Selectivity ratio I/IX: ratio of Ki CA I / CA IX; for Selectivity ratio II/IX: ratio of Ki CA II / CA IX.
Source text: as §3
The subject of experiment [8] is HBL-100 (breast). The experiment can be described thus: antiproliferative assay (NCI protocol), HBL-100. The experiment is classed as cell-based, human. Particulars: Homo sapiens, HBL-100; antiproliferative activity. The procedure:
as §1, §2

For experiment [9], the system named is A549 (non-small cell lung). The experiment is described as follows: antiproliferative assay (NCI protocol), A549. The experiment is classed as cell-based, human. Particulars: Homo sapiens, A549; antiproliferative activity. On the procedure: as §1, §2
Experiment [10] concerns the target T2, human CA II. The experiment can be described thus: stopped-flow CO2 hydrase assay, CA II.
Source text: as §3
The target in experiment [11] is T1, human CA I. The experiment is described as follows: stopped-flow CO2 hydrase assay, CA I.
Source text: as §3
Experiment [12] relates to WiDr (colon). The experiment can be described thus: antiproliferative assay (NCI protocol), WiDr. The experiment is classed as cell-based, human. The note with it: Homo sapiens, WiDr; antiproliferative activity, multidrug-resistant line. On the procedure:
as §1, §2

The subject of experiment [13] is panel of six human solid tumour cell lines. The experiment can be described thus: antiproliferative assay, whole panel of tumour cell lines. In kind it is cell-based. The procedure:
as §1, §2

Experiment [14] relates to BJ-hTert, human fibroblasts. The experiment can be described thus: antiproliferative assay (NCI protocol), non-tumour BJ-hTert. Particulars: Fibroblast; non-tumour cell line, human fibroblasts. The experiment is classed as cell-based. The procedure: as §1, §2
Experiment [15] relates to T-47D (breast). The experiment is described as follows: antiproliferative assay (NCI protocol), T-47D. The experiment is classed as cell-based, human. The note with it: Homo sapiens, T47D; antiproliferative activity, multidrug-resistant line. The procedure: as §1, §2
The target of experiment [16] is human CA XII (Homo sapiens, UniProt O43570). The experiment is described as follows: stopped-flow CO2 hydrase assay, CA XII. The note with it: for Selectivity ratio I/XII: ratio of Ki CA I / CA XII; for Selectivity ratio II/XII: ratio of Ki CA II / CA XII.
Source text: as §3

Structures are written as SMILES. pKi: −log10 of the molar value. Where two headings read alike, the source gives them in different places. Bounds are passed on as bounds.

Chain of human CA XII (O43570 25-354): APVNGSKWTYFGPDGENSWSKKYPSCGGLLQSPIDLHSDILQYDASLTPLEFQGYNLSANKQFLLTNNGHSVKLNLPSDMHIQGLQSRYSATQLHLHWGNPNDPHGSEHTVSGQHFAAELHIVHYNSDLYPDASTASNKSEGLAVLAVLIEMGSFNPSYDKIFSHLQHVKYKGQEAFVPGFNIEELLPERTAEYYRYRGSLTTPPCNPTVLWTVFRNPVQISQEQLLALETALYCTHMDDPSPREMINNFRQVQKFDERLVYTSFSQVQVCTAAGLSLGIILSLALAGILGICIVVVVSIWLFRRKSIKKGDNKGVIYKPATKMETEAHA
T1 sequence (P00915 whole entry): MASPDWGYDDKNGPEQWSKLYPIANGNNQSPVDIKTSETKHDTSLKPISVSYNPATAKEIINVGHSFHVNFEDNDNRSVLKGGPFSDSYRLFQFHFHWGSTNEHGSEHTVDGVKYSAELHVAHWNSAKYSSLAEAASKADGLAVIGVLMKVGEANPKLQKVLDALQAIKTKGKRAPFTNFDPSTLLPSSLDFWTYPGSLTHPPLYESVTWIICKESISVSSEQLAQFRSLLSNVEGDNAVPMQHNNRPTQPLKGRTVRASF
Chain of human CA IV (P22748 19-312): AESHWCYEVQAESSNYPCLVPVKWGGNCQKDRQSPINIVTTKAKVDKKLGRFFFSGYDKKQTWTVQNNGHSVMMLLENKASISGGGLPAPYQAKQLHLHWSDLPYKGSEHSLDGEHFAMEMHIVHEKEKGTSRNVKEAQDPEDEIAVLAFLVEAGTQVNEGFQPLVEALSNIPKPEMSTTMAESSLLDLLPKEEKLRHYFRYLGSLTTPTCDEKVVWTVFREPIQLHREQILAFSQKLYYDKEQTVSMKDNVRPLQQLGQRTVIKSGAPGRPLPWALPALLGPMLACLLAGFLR
Chain of human CA VII (P43166 whole entry): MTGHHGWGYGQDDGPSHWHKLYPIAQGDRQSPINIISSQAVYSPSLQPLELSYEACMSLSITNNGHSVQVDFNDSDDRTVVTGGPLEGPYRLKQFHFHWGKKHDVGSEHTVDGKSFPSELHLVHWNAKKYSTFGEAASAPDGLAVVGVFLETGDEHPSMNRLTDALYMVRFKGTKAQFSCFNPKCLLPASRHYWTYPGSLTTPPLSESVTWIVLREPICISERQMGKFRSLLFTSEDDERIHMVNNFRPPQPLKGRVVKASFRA

Take `Cc1cc(=O)oc2cc(O)ccc12` [Compound 3a, 4-methylumbelliferone]: the pKi in [1] and in [2] was less than 4.00 throughout.
Consider `O=c1cc(-c2ccccc2)c2ccc(OCCCCCCNc3nc4ccccc4o3)cc2o1` [Compound 8f], for which the pKi was 6.09 in [3]; less than 5.00 in experiment [5]; 6.57 in experiment [7]; less than 5.00 in experiment [10]; less than 5.00 in [11]; 6.50 in [16]. Also, the GI50 in [4], in experiment [6], in experiment [8], in experiment [9], in experiment [12] and in [14] was more than 100 µM each time. In [15], the GI50 is more than 100 µM. Also, the “Selectivity ratio I/IX” value in experiment [7] was more than 36.9. For the same compound, the “Selectivity ratio II/IX” value in experiment [7] is recorded as more than 36.9. The “impairment of inhibition of CA IX compared to Me-counterpart 8c” value in experiment [7] (versus 8c) was determined as 3 fold. Further, the “antiproliferative activity against all cell lines (in words)” value in experiment [13] was “completely abolished activity against all cell lines”. Also, the “Selectivity ratio I/XII” value in [16] is more than 31.6. The “Selectivity ratio II/XII” value in experiment [16] is given as more than 31.6. Further, the “impairment of inhibition of CA XII compared to Me-counterpart 8c” value in [16] (versus 8c) was found to be 5 fold.
With `Cc1ccc2oc(NCCCCCOc3ccc4c(C)cc(=O)oc4c3)nc2c1` [Compound 8g], the pKi is 6.12 in experiment [3]; less than 5.00 in experiment [5]; 6.38 in [7]; less than 5.00 in experiment [10]; less than 5.00 in [11]; 7.17 in [16]. Moreover, the GI50 in experiment [4], in [6], in experiment [8], in experiment [9], in experiment [12] and in experiment [14] was more than 100 µM each time. The 50% growth inhibitory concentration (GI50) in experiment [15] is more than 100 µM. Moreover, the “Selectivity ratio I/IX” value in experiment [7] is given as more than 24.0. Besides, the “Selectivity ratio II/IX” value in [7] is more than 24.0. Also, in experiment [7] (versus 8b), the “decreased activity against CA IX compared to non-substituted counterpart 8b” value was 6 fold. Moreover, the “antiproliferative activity against all cell lines (in words)” value in experiment [13] is given as “completely abolished activity against all cell lines”. Also, the “Selectivity ratio I/XII” value in experiment [16] was more than 148.6. For the same compound, the “Selectivity ratio II/XII” value in [16] is more than 148.6.

Usually GI50 stands for the concentration giving 50% growth inhibition.
